pIC50: −log10 of the molar value. Like-named read-outs stand apart in the source and are kept apart here.
Columns and labels:
[1] = target: Beta Secretase enzyme (BACE) (Homo sapiens, UniProt P56817); assay: In vitro enzymatic BACE FRET (fluorescence resonance energy transfer) assay; type: biochemical; details: average IC50, enzyme assay; read-out: BACE 1 FRET assay
Summary of the method: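 Fluorescence read after Tris quench to neutral pH. Reaction: 50 nM fluorophore/quencher peptide substrate, 1 h, in 0.05 M acetate pH 4.2, 10% DMSO final, 100 uM genapol.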

[2] = tested on: Aβ40 in conditioned medium of cells stably expressing Amyloid Precursor Protein (APP); assay: In vitro BACE cell-based assay (Aβ40 in conditioned medium, sandwich ELISA); details: read-out: HEK cell assay
Summary of the method: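 Quantification relied on pAb40/6E10 sandwich ELISA with Europium fluorescence counts, and IC50 was fitted versus concentration.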

[3] = Homo sapiens, HEK293, average IC50, HEK cells
[4] = Homo sapiens, HEK293, average IC50

Sequence of Beta Secretase enzyme (BACE) (P56817 46-501, species assumed): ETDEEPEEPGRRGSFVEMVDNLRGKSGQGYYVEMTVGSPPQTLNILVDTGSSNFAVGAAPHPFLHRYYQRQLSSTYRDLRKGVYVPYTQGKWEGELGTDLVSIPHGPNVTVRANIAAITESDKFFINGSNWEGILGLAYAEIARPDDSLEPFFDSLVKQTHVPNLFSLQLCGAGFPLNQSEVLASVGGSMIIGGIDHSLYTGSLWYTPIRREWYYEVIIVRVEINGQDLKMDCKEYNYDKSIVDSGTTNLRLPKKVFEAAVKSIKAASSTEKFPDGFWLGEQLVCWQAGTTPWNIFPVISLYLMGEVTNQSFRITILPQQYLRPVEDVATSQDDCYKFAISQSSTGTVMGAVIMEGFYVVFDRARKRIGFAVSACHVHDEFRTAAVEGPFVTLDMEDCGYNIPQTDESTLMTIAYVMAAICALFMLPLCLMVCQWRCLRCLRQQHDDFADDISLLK

Compound | pIC50 [1] | pIC50 [2, 3] | pIC50 [2, 4] | pIC50 ([2]; average IC50, HEK cells) | pIC50 [2]
CC#Cc1cc(F)c2c(c1)[C@]1(COC(N)=N1)c1cc(-c3cccnc3F)ccc1O2 [Example 651, (4S)-4′-fluoro-7′-(2-fluoro-3-pyridinyl)-2′-(1-propyn-1-yl)spiro[1,3-oxazole-4,9′-xanthen]-2-amine] | 8.72 | 7.43 | – | – | –
NC1=N[C@@]2(CO1)c1cc(-c3cncc(C#CCO)c3)ccc1Oc1cnc(C3=CCCOC3)cc12 [Example 827, 3-(5-((5S)-2′-amino-3-(5,6-dihydro-2H-pyran-3-yl)spiro[chromeno[2,3-c]pyridine-5,4′-[1,3]oxazol]-7-yl)-3-pyridinyl)-2-propyn-1-ol] | 9.30 | – | 8.70 | – | –
NC1=N[C@@]2(CO1)c1cc(-c3cccnc3F)ccc1Oc1ncc(C#CC3(F)COC3)cc12 [Example 520, (5S)-3-((3-fluoro-3-oxetanyl)ethynyl)-7-(2-fluoro-3-pyridinyl)spiro[chromeno[2,3-b]pyridine-5,4′-[1,3]oxazol]-2′-amine] | 8.85 | 7.86 | – | – | –
N#Cc1cccc(-c2ccc3c(c2)[C@@]2(COC(N)=N2)c2cc(N4CC[C@H](F)C4)nc(F)c2O3)c1 [Example 924, 3-((5S)-2′-amino-1-fluoro-3-((3S)-3-fluoro-1-pyrrolidinyl)spiro[chromeno[2,3-c]pyridine-5,4′-[1,3]oxazol]-7-yl)benzonitrile] | 9.30 | 7.74 | – | – | –
CC#Cc1cncc(-c2cnc3c(c2)[C@]2(COC(N)=N2)c2cc(OC)ccc2O3)c1 [Example 775, (5S)-7-methoxy-3-(5-(1-propyn-1-yl)-3-pyridinyl)spiro[chromeno[2,3-b]pyridine-5,4′-[1,3]oxazol]-2′-amine] | 5.32 | – | ≤ 5.00 | – | –
NC1=N[C@@]2(CS1)c1cc(-c3cncc(F)c3)ccc1Oc1cnc(C3=CCOCC3)cc12 [Example 592, (5S)-3-(3,6-dihydro-2H-pyran-4-yl)-7-(5-fluoro-3-pyridinyl)spiro[chromeno[2,3-c]pyridine-5,4′-[1,3]thiazol]-2′-amine] | 9.05 | – | – | 7.67 | –
N#Cc1cccc(-c2ccc3c(c2)[C@@]2(CSC(N)=N2)c2cc(C4=CCOCC4)cnc2O3)c1F [Example 763, 3-((5S)-2′-amino-3-(3,6-dihydro-2H-pyran-4-yl)spiro[chromeno[2,3-b]pyridine-5,4′-[1,3]thiazol]-7-yl)-2-fluorobenzonitrile] | 8.68 | – | 7.77 | – | –
NC1=N[C@@]2(CO1)c1cc(-c3ccc(F)nc3)ccc1Oc1c(F)cc(C3=CCOCC3)cc12 [Example 260, (4S)-2′-(3,6-dihydro-2H-pyran-4-yl)-4′-fluoro-7′-(6-fluoro-3-pyridinyl)spiro[1,3-oxazole-4,9′-xanthen]-2-amine] | 8.72 | – | 7.96 | – | –
COCC1SC(N)=N[C@@]12c1cc(-c3cccnc3F)ccc1Oc1cnc(Cl)cc12 (stereo partly drawn) [Example 1088, (5R)-3-chloro-7-(2-fluoro-3-pyridinyl)-5′-(methoxymethyl)spiro[chromeno[2,3-c]pyridine-5,4′-[1,3]thiazol]-2′-amine, (5S)-3-chloro-7-(2-fluoro-3-pyridinyl)-5′-(methoxymethyl)spiro[chromeno[2,3-c]pyridine-5,4′-[1,3]thiazol]-2′-amine] | 6.94 | – | – | – | 5.51
NC1=N[C@@]2(CO1)c1cc(-c3cnccc3F)ccc1Oc1c(F)cc(C3CCOCC3)cc12 [Example 1056, (4S)-4′-fluoro-7′-(4-fluoro-3-pyridinyl)-2′-(tetrahydro-2H-pyran-4-yl)spiro[1,3-oxazole-4,9′-xanthen]-2-amine] | 8.52 | – | 7.77 | – | –
N#Cc1cccc(-c2ccc3c(c2)[C@@]2(COC(N)=N2)c2cc(C4=CCOCC4)cnc2O3)c1 [Example 169, 3-((5S)-2′-amino-3-(3,6-dihydro-2H-pyran-4-yl)spiro[chromeno[2,3-b]pyridine-5,4′-[1,3]oxazol]-7-yl)benzonitrile] | 8.89 | – | 8.35 | – | –
NC1=N[C@@]2(CO1)c1cc(O)ccc1Oc1ncc(Br)cc12 [Example 689, (5S)-2′-amino-3-bromospiro[chromeno[2,3-b]pyridine-5,4′-[1,3]oxazol]-7-ol] | 5.39 | 5.00 | – | – | –
CC#Cc1cncc(-c2ccc3c(c2)[C@@]2(COC(N)=N2)c2cc(Cl)nc(OC)c2O3)c1 [Example 829, (5S)-3-chloro-1-methoxy-7-(5-(1-propyn-1-yl)-3-pyridinyl)spiro[chromeno[2,3-c]pyridine-5,4′-[1,3]oxazol]-2′-amine] | 7.52 | – | 5.39 | – | –
CC1(C#Cc2cnc3c(c2)[C@@]2(COC(N)=N2)c2c(ccc(-c4cncnc4)c2F)O3)COC1 [Example 345, (5S)-6-fluoro-3-((3-methyl-3-oxetanyl)ethynyl)-7-(5-pyrimidinyl)spiro[chromeno[2,3-b]pyridine-5,4′-[1,3]oxazol]-2′-amine] | 7.03 | – | 6.19 | – | –
CC(C)(C)COc1cc(F)c2c(c1)[C@]1(COC(N)=N1)c1cc(-c3cncnc3)c(F)cc1O2 [Example 526, (4S)-7′-(2,2-dimethylpropoxy)-3′,5′-difluoro-2′-(5-pyrimidinyl)spiroy[1,3-oxazole-4,9′-xanthen]-2-amine] | 8.70 | 8.04 | – | – | –
N#Cc1cccc(-c2cc3c(cn2)Oc2c(F)cc(C4=CCOCC4)cc2[C@]32COC(N)=N2)c1 [Example 308, 3-((5S)-2′-amino-7-(3,6-dihydro-2H-pyran-4-yl)-9-fluorospiro[chromeno[2,3-c]pyridine-5,4′-[1,3]oxazol]-3-yl)benzonitrile] | 8.03 | – | 6.93 | – | –
CC1(C)CC(c2cnc3c(c2)[C@]2(CSC(N)=N2)c2cc(-c4cccnc4F)ccc2O3)=CCO1 [Example 774, (5S)-3-(2,2-dimethyl-3,6-dihydro-2H-pyran-4-yl)-7-(2-fluoro-3-pyridinyl)spiro[chromeno[2,3-b]pyridine-5,4′-[1,3]thiazol]-2′-amine] | 9.22 | – | 7.77 | – | –
CC1(C#Cc2cnc3c(c2)[C@@]2(COC(N)=N2)c2cc(-c4cnccc4F)c(F)cc2O3)COC1 [Example 622, (5R)-8-fluoro-7-(4-fluoro-3-pyridinyl)-3-((3-methyl-3-oxetanyl)ethynyl)spiro[chromeno[2,3-b]pyridine-5,4′-[1,3]oxazol]-2′-amine] | 6.98 | 6.34 | – | – | –
NC1=N[C@@]2(CS1)c1cc(-c3cccnc3F)ccc1Oc1c(F)cc(-c3ccncc3)cc12 [Example 1068, (4S)-4′-fluoro-7′-(2-fluoro-3-pyridinyl)-2′-(4-pyridinyl)spiro[1,3-thiazole-4,9′-xanthen]-2-amine] | 8.64 | – | 7.21 | – | –
COc1cc(F)c2c(c1)[C@]1(COC(N)=N1)c1cc(-c3cncc(C#CC(C)(C)O)c3)ccc1O2 [Example 822, 4-(5-((4S)-2-amino-5′-fluoro-7′-methoxyspiro[1,3-oxazole-4,9′-xanthen]-2′-yl)-3-pyridinyl)-2-methyl-3-butyn-2-ol] | 7.03 | – | 5.52 | – | –
CC1(C#Cc2cc3c(cn2)Oc2ccc(-c4cccnc4F)cc2C32CSC(N)=N2)COC1 (stereo not drawn) [Example 683, 7-(2-fluoro-3-pyridinyl)-3-((3-methyl-3-oxetanyl)ethynyl)spiro[chromeno[2,3-c]pyridine-5,4′-[1,3]thiazol]-2′-amine] | 8.92 | 7.72 | – | – | –
